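Tested at 5 concentrations; 48 h exposure; 96-well plates; endpoints linearly interpolated, else capped at highest concentration. GI50 marks 50% less growth.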 Active and inactive are the calls of the source. No stated cut-off is given here; in the data, active = GI50 up to about 1.1 µM and inactive = higher.
What was measured:
Assay in all cases: growth of human tumour cells (NCI), 48 h
[1] = system: A498
[2] = system: TK-10
[3] = system: 786-0
[4] = system: HOP-62
[5] = system: RPMI-8226
[6] = system: HCT-116
[7] = system: CAKI-1
[8] = system: DU-145
[9] = system: OVCAR-3
[10] = system: SK-OV-3
[11] = system: ACHN
[12] = system: SK-MEL-28
[13] = system: M14
[14] = system: NCI-H226
[15] = system: OVCAR-4
[16] = system: UACC-257
[17] = system: UACC-62
[18] = system: IGROV-1
[19] = system: A549
[20] = system: NCI-H23

Compound	GI50 [1]	GI50 [2]	GI50 [3]	GI50 [4]	GI50 [5]	GI50 [6]	GI50 [7]	GI50 [8]	GI50 [9]	GI50 [10]	GI50 [11]	GI50 [12]	GI50 [13]	GI50 [14]	GI50 [15]	GI50 [16]	GI50 [17]	GI50 [18]	GI50 [19]	GI50 [20]
C=CN1CCN(c2ccccc2)P1(=O)Oc1ccccc1 (stereo not given)	> 100 µM (inactive)	39.9 µM (inactive)	> 100 µM (inactive)	> 100 µM (inactive)	> 100 µM (inactive)	48 µM (inactive)	> 100 µM (inactive)	> 100 µM (inactive)	> 100 µM (inactive)	> 100 µM (inactive)	48.8 µM (inactive)	> 100 µM (inactive)	40.2 µM (inactive)	65.2 µM (inactive)	> 100 µM (inactive)	> 100 µM (inactive)	53.1 µM (inactive)	53.7 µM (inactive)	> 100 µM (inactive)	> 100 µM (inactive)
COc1cc(/C=C/c2sc3ccccc3[n+]2C)ccc1N(C)C	44 µM (inactive)	13.2 µM (inactive)	12.2 µM (inactive)	17.9 µM (inactive)	2.21 µM (inactive)	3.3 µM (inactive)	35.6 µM (inactive)	13.6 µM (inactive)	2.23 µM (inactive)	23.6 µM (inactive)	11.1 µM (inactive)	8.2 µM (inactive)	13.4 µM (inactive)	22.4 µM (inactive)	1.33 µM (inactive)	2.96 µM (inactive)	5.26 µM (inactive)	7.41 µM (inactive)	5.98 µM (inactive)	11.5 µM (inactive)
Cc1ccc(-c2cc(N)n(-c3nc4c([nH]3)c(=O)n(C)c(=O)n4C)n2)cc1	4.86 µM (inactive)	9.84 µM (inactive)	2.08 µM (inactive)	3.28 µM (inactive)	6.81 µM (inactive)	2.69 µM (inactive)	0.778 µM (active)	6.35 µM (inactive)	4.55 µM (inactive)	3.3 µM (inactive)	1.92 µM (inactive)	6.14 µM (inactive)	4.32 µM (inactive)	6.71 µM (inactive)	4.01 µM (inactive)	15.3 µM (inactive)	5.37 µM (inactive)	2.2 µM (inactive)	4.68 µM (inactive)	8.95 µM (inactive)
COC1=CC(=O)c2c(O)c3c(c(O)c2C1=O)C[C@](C)(O)C[C@@H]3O	7.66 µM (inactive)	23.2 µM (inactive)	7.76 µM (inactive)	8.45 µM (inactive)	8.11 µM (inactive)	2.61 µM (inactive)	17.4 µM (inactive)	4.11 µM (inactive)	0.861 µM (active)	14.1 µM (inactive)	5.15 µM (inactive)	7.05 µM (inactive)	2.6 µM (inactive)	23.9 µM (inactive)	3.72 µM (inactive)	1.99 µM (inactive)	1.46 µM (inactive)	4.61 µM (inactive)	2.93 µM (inactive)	2.43 µM (inactive)
CC(=O)OCC1OC(OC2CC3C(C)(C)C(O)CC[C@]3(C)C3CCC45CC4(CCC5[C@@H](C)CC(O)C(O)C(C)(C)O)[C@]23C)C(O)C(O)C1O (stereo not given in full)	> 10 µM (inactive)	> 10 µM (inactive)	> 10 µM (inactive)	> 10 µM (inactive)	> 10 µM (inactive)	> 10 µM (inactive)	> 10 µM (inactive)	> 10 µM (inactive)	> 10 µM (inactive)	> 10 µM (inactive)	> 10 µM (inactive)	> 10 µM (inactive)	> 10 µM (inactive)	> 10 µM (inactive)	> 10 µM (inactive)	> 10 µM (inactive)	> 10 µM (inactive)	> 10 µM (inactive)	> 10 µM (inactive)	> 10 µM (inactive)

From ChEMBL document CHEMBL1201862, “PubChem BioAssay data set” (2004)
